This note sets out measurements from US20140274688A1, “MOLECULES HAVING CERTAIN PESTICIDAL UTILITIES, AND INTERMEDIATES, COMPOSITIONS, AND PROCESSES RELATED THERETO” (DOW AGROSCIENCES LLC, priority 2013, published 2014).

Data set [1] concerns Beet Armyworm (Spodoptera exigua) ("BAW"). Description: Bioassay on Beet Armyworm (BAW), 128-well diet tray assay, percent mortality. Type of data set: in vivo. The settings on record: for pest or weed control at 50 µg/cm2: Spodoptera exigua, read-out: BAW; for BAW rating (percent mortality class): Beet Armyworm, 128-well diet tray assay. In a few lines: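 Larvae in covered diet trays held at 25 °C, 14:10 light-dark, for five to seven days. Percent mortality scored per well and averaged over eight wells per treatment.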

For data set [2], the system named is Yellow Fever Mosquito "YFM" (Aedes aegypti). The settings on record: for YFM: Table ABC (P), rating of mortality, Yellow Fever Mosquito; for YFM rating (mortality class): Yellow Fever Mosquito larvae, 96-well plates.
In data set [3] the test system is Cabbage Looper (Trichoplusia ni) ("CL"). Description: Bioassay on Cabbage Looper (CL), 128-well diet tray assay, percent mortality. The class given is in vivo. The note with it: for pest or weed control at 50 µg/cm2: Trichoplusia ni, read-out: CL; for CL rating (percent mortality class): Cabbage Looper, 128-well diet tray assay. An outline of the steps: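 Larvae held in covered diet trays at 25 °C, 14:10 light-dark, for five to seven days. Percent mortality scored per well and averaged over eight wells.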

Turning to `CC(Cc1ccc(-c2ncn(-c3ccc(OC(F)(F)F)cc3)n2)cc1)NC(=O)/N=C1\SCC(=O)N1c1ccc(F)cc1C(C)C` (stereo not drawn) [P33, (Z)-1-(3-(4-fluoro-2-isopropylphenyl)-4-oxothiazolidin-2-ylidene)-3-(1-(4-(1-(4-(trifluoromethoxy)phenyl)-1H-1,2,4-triazol-3-yl)phenyl)propan-2-yl)urea], the pest or weed control at 50 µg/cm2 in data set [1] and in data set [3] was 50 to 100% in each case. Besides, in data set [2], the YFM result was “A (80-100)”.

`CC(C)c1ccccc1NC(=S)NC(=O)NCc1ccc(-c2ncn(-c3ccc(OC(F)(F)F)cc3)n2)cc1` [F14, N-[2-(propan-2-yl)phenyl]-N′-(4-{1-[4-(trifluoromethoxy)phenyl]-1H-1,2,4-triazol-3-yl}benzyl)dicarbonimidothioic diamide]: in data set [1], the “BAW rating (percent mortality class)” value is reported as “A (50-100)”. Further, in data set [2], the “YFM rating (mortality class)” value is reported as “A (80-100)”. Besides, the “CL rating (percent mortality class)” value in data set [3] is recorded as “A (50-100)”.

For `Cc1ccc(C(C)C)c(-n2c(C)cs/c2=N\C(=O)NCCc2ccc(-c3ncn(-c4ccc(OC(F)(F)F)cc4)n3)cc2)c1` [P65, (Z)-1-(3-(2-isopropyl-5-methylphenyl)-4-methylthiazol-2(3H)-ylidene)-3-(4-(1-(4-(trifluoromethoxy)phenyl)-1H-1,2,4-triazol-3-yl)phenethyl)urea], the pest or weed control at 50 µg/cm2 in data set [1] and in data set [3] was 50 to 100% each time. Further, the YFM entry in data set [2] was “A (80-100)”.

As to `Cc1ccc(C(C)C)c(NC(=S)NC(=O)NCCCc2ccc(-c3ncn(-c4ccc(OC(F)(F)F)cc4)n3)cc2)c1` [F21, 1-[(2-isopropyl-5-methyl-phenyl)carbamothioyl]-3-[3-[4-[1-[4-(trifluoromethoxy)phenyl]-1,2,4-triazol-3-yl]phenyl]propyl]urea], the “BAW rating (percent mortality class)” value in data set [1] is listed as “A (50-100)”. Moreover, in data set [2], the “YFM rating (mortality class)” value is listed as “A (80-100)”. The “CL rating (percent mortality class)” value in data set [3] was “A (50-100)”.

For the molecule `Cc1ccc(C(C)C)c(N2C(=O)CS/C2=N\C(=O)NCCc2ccc(-c3ncn(-c4ccc(OC(F)(F)C(F)(F)F)cc4)n3)cc2)c1` [F9, (Z)-1-(3-(2-isopropyl-5-methylphenyl)-4-oxothiazolidin-2-ylidene)-3-(4-(1-(4-(perfluoroethoxy)phenyl)-1H-1,2,4-triazol-3-yl)phenethyl)urea], the “BAW rating (percent mortality class)” value in data set [1] is reported as “A (50-100)”. In addition, the “YFM rating (mortality class)” value in data set [2] is given as “A (80-100)”. For the same molecule, the “CL rating (percent mortality class)” value in data set [3] is on record as “A (50-100)”.

As for `Cc1ccc(C(C)C)c(N2C(=O)CS/C2=N\C(=O)NCCCc2ccc(-c3ncn(-c4ccc(OC(F)(F)F)cc4)n3)cc2)c1` [F20, (Z)-1-(3-(2-isopropyl-5-methylphenyl)-4-oxothiazolidin-2-ylidene)-3-(3-(4-(1-(4-(trifluoromethoxy)phenyl)-1H-1,2,4-triazol-3-yl)phenyl)propyl)urea], the “BAW rating (percent mortality class)” value in data set [1] is “A (50-100)”. In addition, in data set [2], the “YFM rating (mortality class)” value was “A (80-100)”. Besides, in data set [3], the “CL rating (percent mortality class)” value is recorded as “A (50-100)”.

In the case of `COc1ccc(N2C(=O)CS/C2=N\C(=O)NCCc2ccc(-c3ncn(-c4ccc(OC(F)(F)F)cc4)n3)cc2)c(C)c1` [P44, (Z)-1-(3-(4-methoxy-2-methylphenyl)-4-oxothiazolidin-2-ylidene)-3-(4-(1-(4-(trifluoromethoxy)phenyl)-1H-1,2,4-triazol-3-yl)phenethyl)urea], the pest or weed control at 50 µg/cm2 in data set [1] and in data set [3] was 50 to 100% in each case. Besides, the YFM result in data set [2] is given as “A (80-100)”.

Regarding `CCc1ccc(C)cc1N1C(=O)CS/C1=N\C(=O)NCCc1ccc(-c2ncn(-c3ccc(OC(F)(F)F)cc3)n2)cc1` [P49, (Z)-1-(3-(2-ethyl-5-methylphenyl)-4-oxothiazolidin-2-ylidene)-3-(4-(1-(4-(trifluoromethoxy)phenyl)-1H-1,2,4-triazol-3-yl)phenethyl)urea], the pest or weed control at 50 µg/cm2 in data set [1] and in data set [3] was 50 to 100% in each case. Moreover, in data set [2], the YFM entry is recorded as “A (80-100)”.

Consider `COc1ccc(C(C)C)c(N2C(=O)CS/C2=N\C(=O)NCCc2ccc(-c3ncn(-c4ccc(C(F)(F)F)cc4)n3)cc2)c1` [P53, (Z)-1-(3-(2-isopropyl-5-methoxyphenyl)-4-oxothiazolidin-2-ylidene)-3-(4-(1-(4-(trifluoromethyl)phenyl)-1H-1,2,4-triazol-3-yl)phenethyl)urea], for which the pest or weed control at 50 µg/cm2 in data set [1] and in data set [3] was 50 to 100% throughout. Further, the YFM result in data set [2] is “A (80-100)”.

In the case of `COc1ccc(N2C(=O)CS/C2=N\C(=O)NC(C)Cc2ccc(-c3ncn(-c4ccc(OC(F)(F)F)cc4)n3)cc2)c(C)c1` (stereo not drawn) [P45, (Z)-1-(3-(4-methoxy-2-methylphenyl)-4-oxothiazolidin-2-ylidene)-3-(1-(4-(1-(4-(trifluoromethoxy)phenyl)-1H-1,2,4-triazol-3-yl)phenyl)propan-2-yl)urea], the pest or weed control at 50 µg/cm2 in data set [1] and in data set [3] was 50 to 100% in each case. The YFM result in data set [2] is on record as “A (80-100)”.

Consider `CC(C)c1ccccc1N1C(=O)CS/C1=N\C(=O)NCC(C)c1ccc(-c2ncn(-c3ccc(OC(F)(F)F)cc3)n2)cc1` (stereo not drawn) [P205, (Z)-1-(3-(2-isopropylphenyl)-4-oxothiazolidin-2-ylidene)-3-(2-(4-(1-(4-(trifluoromethoxy)phenyl)-1H-1,2,4-triazol-3-yl)phenyl)propyl)urea], for which the pest or weed control at 50 µg/cm2 in data set [1] and in data set [3] was 50 to 100% in each case. In addition, the YFM result in data set [2] was “A (80-100)”.

Consider `COc1ccc(C(C)C)c(N2C(=O)CS/C2=N\C(=O)NCC(C)c2ccc(-c3ncn(-c4ccc(OC(F)(F)F)cc4)n3)cc2)c1` (stereo not drawn) [P679, (Z)-1-(3-(2-isopropyl-5-methoxyphenyl)-4-oxothiazolidin-2-ylidene)-3-(2-(4-(1-(4-(trifluoromethoxy)phenyl)-1H-1,2,4-triazol-3-yl)phenyl)propyl)urea], for which the pest or weed control at 50 µg/cm2 in data set [1] and in data set [3] was 50 to 100% throughout. Moreover, the YFM result in data set [2] was “A (80-100)”.

As to `Cc1ccc(C(C)C)c(N2C(=O)CS/C2=N\C(=O)NCCc2ccc(-c3ncn(-c4ccc(C(F)(F)F)cc4)n3)cc2)c1` [P52, (Z)-1-(3-(2-isopropyl-5-methylphenyl)-4-oxothiazolidin-2-ylidene)-3-(4-(1-(4-(trifluoromethyl)phenyl)-1H-1,2,4-triazol-3-yl)phenethyl)urea], the pest or weed control at 50 µg/cm2 in data set [1] and in data set [3] was 50 to 100% in each case. Further, the YFM result in data set [2] is “A (80-100)”.

For `Cc1cccc(N2C(=O)CS/C2=N\C(=O)NCCc2ccc(-c3ncn(-c4ccc(OC(F)(F)F)cc4)n3)cc2)c1C(C)C` [P27, (Z)-1-(3-(2-isopropyl-3-methylphenyl)-4-oxothiazolidin-2-ylidene)-3-(4-(1-(4-(trifluoromethoxy)phenyl)-1H-1,2,4-triazol-3-yl)phenethyl)urea], the pest or weed control at 50 µg/cm2 in data set [1] and in data set [3] was 50 to 100% in each case. Moreover, in data set [2], the YFM result is reported as “A (80-100)”.

In the case of `CC(C)c1ccccc1N1C(=O)CS/C1=N\C(=O)NC1CC1c1ccc(-c2ncn(-c3ccc(OC(F)(F)F)cc3)n2)cc1` (stereo not drawn) [F29, (Z)-1-(3-(2-isopropylphenyl)-4-oxothiazolidin-2-ylidene)-3-(2-(4-(1-(4-(trifluoromethoxy)phenyl)-1H-1,2,4-triazol-3-yl)phenyl)cyclopropyl)urea], the “BAW rating (percent mortality class)” value in data set [1] is reported as “A (50-100)”. In addition, the “YFM rating (mortality class)” value in data set [2] is “A (80-100)”. In data set [3], the “CL rating (percent mortality class)” value is “A (50-100)”.
